Assay results published in PMC11061149, “Protein mimetic 2D FAST rescues alpha synuclein aggregation mediated early and post disease Parkinson’s phenotypes” (Nature Communications, 2024).
“And” between values parts separate entries of the source, which are not always exact repeats. Identical values can stand only once.

Tested on: UA196 worms
Test: Motility assay of UA196 worms in the presence of dopamine and NS163
Assay type: in vivo, C. elegans
Details: for Motility of worms, UA196+Dopamine: individual trials
Protocol: This motility assay was performed exactly as the previous assay with slight adjustment in the preparation of the plates for the treatment of UA196 worms. For this assay, the only difference is the 24 well plates were prepared with 2 mM dopamine (referred to as PLATE 5) and both 2 mM dopamine and 50 µM NS163 (referred to as PLATE 6). To prepare PLATE 5, the NGM media containing 75 µM FUDR was autoclaved and poured in NGM plates (2 mL total liquid). After 12 h, the NGM plates were seeded with 350 µL of OP50 (with OD = 0.5 at 600 nm) at 20 °C. After 12 h, 2 mM dopamine dissolved in M9 buffer (total volume = 300 µL) was spotted atop the NGM plates at 20 °C. To prepare PLATE 6, the NGM media containing 75 µM FUDR was autoclaved and poured in NGM plates (2 mL total liquid). After 12 h, the NGM plates were seeded with 350 µL of OP50 (with OD = 0.5 at 600 nm) at 20 °C. After 12 h, NS163 (50 µM, stock conc. = […] in DMSO) and dopamine (2 mM in M9 buffer) were dissolved in M9 buffer (total volume = 300 µL) and were spotted atop the NGM plates at 20 °C. The NGM plates treated with dopamine and NS163 and dopamine were placed in sterile laminar flow hood at 20 °C for 1 h. The NGM plates treated with dopamine and NS163 and dopamine were prepared and used within 24 h.
There were six conditions for this experiment: (1) N2 worms, (2) N2 worms treated with 2 mM dopamine, (3) UA196 worms, (4) UA196 worms treated with 2 mM dopamine, (5) UA196 worms treated with 50 µM NS163, and (6) UA196 worms treated with 2 mM dopamine and 50 µM NS163. For each condition, four biological replicates were performed, and each biological replicate consisted of four technical replicates (four wells). For each condition, the data were expressed as mean and the error bars report the s.e.m. (n = 4 independent experiments and each n consisted of a total of four technical replicates).

NCCc1ccc(O)c(O)c1 [dopamine]
Motility of worms, UA196+Dopamine (Day 4): 146 and 123 and 134 and 157 | Motility of worms, UA196+Dopamine (Day 5): 129 and 128 and 126 and 106 | Motility of worms, UA196+Dopamine (Day 6): 99 and 108 and 117 and 122 | Motility of worms, UA196+Dopamine (Day 7): 108 and 102 and 112 and 99 | Motility of worms, UA196+Dopamine (Day 8): 108 and 103 and 97 and 100 | Motility of worms, UA196+Dopamine (Day 9): 93 and 88 and 92 and 89 | Motility of worms, UA196+Dopamine (Day 10): 87 and 88 and 92 and 89 | Motility of worms, UA196+Dopamine (Day 11): 75 and 62 and 83 and 87 | Motility of worms, UA196+Dopamine (Day 12): 72 and 83 and 69 and 65 | Motility of worms, UA196+Dopamine (Day 13): 51 and 78 and 67 and 62 | motility of UA196 worms treated with dopamine, in words (dopamine 2 mM, day two and four): much higher motility
